ChEMBL document CHEMBL6114980, “Single or double lipid-modified ultra-short antimicrobial peptides for treating infections caused by resistant bacteria” (Eur J Med Chem, 2025)
Converted amounts (≈) assume the structure as drawn. The source made the active and inactive calls. The rule behind the calls is not given here. Peptide text beside a SMILES is read from it. * marks the point of attachment. Lauroyl = CCCCCCCCCCCC(=O)*; Octanoyl = CCCCCCCC(=O)*

What was measured:
Acinetobacter baumannii = experiment: Antibacterial activity against Acinetobacter baumannii ATCC 19606 assessed as reduction in bacterial growth incubated for 18 to 24 hrs by broth microdilution method; format: functional; details: time 18-24 hrs
Klebsiella pneumoniae [1] = experiment: Antibacterial activity against Klebsiella pneumoniae ATCC 700603 assessed as reduction in bacterial growth incubated for 18 to 24 hrs by broth microdilution method; format: functional; details: time 18-24 hrs
Staphylococcus aureus [2] = experiment: Antibacterial activity against methicillin-resistant Staphylococcus aureus ATCC 33591 assessed as reduction in bacterial growth incubated for 18 to 24 hrs by broth microdilution method; format: functional; details: time 18-24 hrs
Staphylococcus aureus [3] = experiment: Antibacterial activity against methicillin-resistant Staphylococcus aureus 75 assessed as reduction in bacterial growth incubated for 18 to 24 hrs by broth microdilution method; format: functional; details: time 18-24 hrs
Staphylococcus aureus [4] = experiment: Antibacterial activity against Staphylococcus aureus 794 assessed as reduction in bacterial growth incubated for 18 to 24 hrs by broth microdilution method; format: functional; details: time 18-24 hrs
Bacillus subtilis = experiment: Antibacterial activity against Bacillus subtilis ATCC 23857 assessed as reduction in bacterial growth incubated for 18 to 24 hrs by broth microdilution method; format: functional; details: time 18-24 hrs
Staphylococcus aureus [5] = experiment: Antibacterial activity against Staphylococcus aureus ATCC 25923 assessed as reduction in bacterial growth incubated for 18 to 24 hrs by broth microdilution method; format: functional; details: time 18-24 hrs
Escherichia coli [6] = experiment: Antibacterial activity against Escherichia coli 780 assessed as reduction in bacterial growth incubated for 18 to 24 hrs by broth microdilution method; format: functional; details: time 18-24 hrs
Pseudomonas aeruginosa = experiment: Antibacterial activity against Pseudomonas aeruginosa 124 assessed as reduction in bacterial growth incubated for 18 to 24 hrs by broth microdilution method; format: functional; details: time 18-24 hrs
Escherichia coli [7] = experiment: Antibacterial activity against Escherichia coli assessed as reduction in survival bacterial growth in presence of ZnCl2 measured after 18 to 24 hrs (reference value: 8 microM); format: functional; details: time 18-24 hrs
Escherichia coli [8] = experiment: Antibacterial activity against Escherichia coli assessed as reduction in survival bacterial growth in presence of FeCl3 measured after 18 to 24 hrs (reference value: 8 microM); format: functional; details: time 18-24 hrs
Staphylococcus aureus [9] = experiment: Antibacterial activity against Staphylococcus aureus assessed as reduction in survival bacterial growth by measuring fold change in presence of FeCl3 measured after 18 to 24 hrs; format: functional; details: time 18-24 hrs
Escherichia coli [10] = experiment: Antibacterial activity against Escherichia coli assessed as reduction in survival bacterial growth by measuring fold change in presence of ZnCl2 measured after 18 to 24 hrs; format: functional; details: time 18-24 hrs
Klebsiella pneumoniae [11] = experiment: Induction of morphological changes in Klebsiella pneumoniae assessed as cell adhesion at 2 times MIC measured after 30 mins by SEM analysis; format: functional, organism-based
Staphylococcus aureus [12] = experiment: Induction of cell membrane disruption in Staphylococcus aureus assessed as PI uptake at 2 to 4 times MIC measured after 120 mins by PI staining based flow cytometry analysis (Rvb =<10 %); format: functional; details: 2 h
Escherichia coli [13] = experiment: Induction of cell membrane disruption in Escherichia coli assessed as PI uptake at 4 times MIC measured after 120 mins by PI staining based flow cytometry analysis (Rvb =<10 %); format: functional; details: 2 h
Cell membrane [14] = experiment: Induction of inner membrane permeabilization in Escherichia coli at 4 times MIC measured for 135 mins by absorbance based analysis
Staphylococcus aureus [15] = experiment: Bactericidal activity against Staphylococcus aureus assessed as bacterial mortality rate at 2 times MIC preincubated with LTA for 1 hr followed by bacteria addition for 24 hrs by spectrophotometric analysis relative to control; format: functional
Staphylococcus aureus [16] = experiment: Antibacterial activity against Staphylococcus aureus 25923 at sub-MIC concentration measured after 15 passages; format: functional, organism-based
Staphylococcus aureus [17] = experiment: Synergistic antibacterial activity against Staphylococcus aureus 25923 measured after 18 hrs in presence of polymyxin B by absorbance based analysis; format: functional, organism-based
Staphylococcus aureus [18] = experiment: Synergistic antibacterial activity against Staphylococcus aureus 25923 measured after 18 hrs in presence of streptomycin by absorbance based analysis; format: functional, organism-based
Staphylococcus aureus [19] = experiment: Synergistic antibacterial activity against Staphylococcus aureus 113 measured after 18 hrs in presence of cephalothin by absorbance based analysis; format: functional, organism-based
Staphylococcus aureus [20] = experiment: Synergistic antibacterial activity against Staphylococcus aureus 113 measured after 18 hrs in presence of streptomycin by absorbance based analysis; format: functional, organism-based
Staphylococcus aureus [21] = experiment: Synergistic antibacterial activity against methicillin-resistant Staphylococcus aureus measured after 18 hrs in presence of polymyxin B by absorbance based analysis; format: functional, organism-based
Staphylococcus aureus [22] = experiment: Synergistic antibacterial activity against Staphylococcus aureus 25923 assessed as fractional inhibitory in presence of polymyxin B by checker board assay; format: functional
Staphylococcus aureus [23] = experiment: Synergistic antibacterial activity against methicillin-resistant Staphylococcus aureus assessed as fractional inhibitory in presence of polymyxin B by checker board assay; format: functional
Staphylococcus aureus [24] = experiment: Additive antibacterial activity against methicillin-resistant Staphylococcus aureus assessed as fractional inhibitory in presence of cephalothin by checker board assay; format: functional
Staphylococcus aureus [25] = experiment: Additive antibacterial activity against Staphylococcus aureus 113 assessed as fractional inhibitory in presence of cephalothin by checker board assay; format: functional
Staphylococcus aureus [26] = experiment: Synergistic antibacterial activity against methicillin-resistant Staphylococcus aureus assessed as fractional inhibitory in presence of streptomycin by checker board assay; format: functional
[27] = Acute toxicity in male BALB/c mouse assessed mouse survival at 100 to 130 mg/kg, ip measured within 3 hrs; format: organism-based; details: in vivo, dose 100-130 mg/kg
Klebsiella pneumoniae [28] = experiment: Antibacterial activity against Klebsiella pneumoniae ATCC 700603 infected in male BALB/c mouse lung infection model assessed as reduction in bacterial load at 5 mg/kg, ip measured after 6 to 36 hrs (reference value: 1.77 10^6CFU/mg); format: functional; details: time 6-36 hrs
Staphylococcus aureus [29] = experiment: Antibacterial activity against methicillin resistant Staphylococcus aureus infected in male BALB/c mouse model of skin wound infection assessed as reduction in wound area at 2 mg/kg, ip measured after 6 to 36 hrs postinfection; format: functional, organism-based; details: time 6-36 hrs
Staphylococcus aureus [30] = experiment: Antibacterial activity against methicillin resistant Staphylococcus aureus infected in male BALB/c mouse model of skin wound infection assessed as reduction in wound area at 2 mg/kg, ip measured after 10 days post infection relative to control; format: functional; set-up: scale not given: the % may be the effect or the level left; details: time 10 day
Staphylococcus aureus [31] = experiment: Antibacterial activity against methicillin resistant Staphylococcus aureus infected in male BALB/c mouse model of skin wound infection assessed as healthy development of sebaceous glands at 2 mg/kg, ip measured after 10 days post infection; format: functional, organism-based; details: time 10.0 day
Staphylococcus aureus [32] = experiment: Antibacterial activity against methicillin resistant Staphylococcus aureus infected in male BALB/c mouse model of skin wound infection assessed as healthy development of hair follicles at 2 mg/kg, ip measured after 10 days post infection; format: functional, organism-based; details: time 10.0 day
Staphylococcus aureus [33] = experiment: Antibacterial activity against Staphylococcus aureus assessed as reduction in survival bacterial growth in presence of Mgcl2 measured after 18 to 24 hrs (reference value: 8 microM); format: functional; details: time 18-24 hrs
Staphylococcus aureus [34] = experiment: Antibacterial activity against Staphylococcus aureus assessed as reduction in survival bacterial growth in presence of ZnCl2 measured after 18 to 24 hrs (reference value: 8 microM); format: functional; details: time 18-24 hrs
Cell membrane [35] = experiment: Induction of outer membrane permeabilization in Escherichia coli assessed as increase in fluorescence intensity at 1 times MIC measured for 10 mins by fluorescence based NPN uptake assay
[36] = Acute toxicity in male BALB/c mouse assessed inflammatory cell infiltration in spleen at 100 to 130 mg/kg, ip measured after 7 days by H and E staining based analysis; format: organism-based; details: in vivo, 168 h, dose 100-130 mg/kg, time 7 day

| SMILES | MIC (Acinetobacter baumannii) | MIC (Klebsiella pneumoniae [1]) | MIC (Staphylococcus aureus [2]) | MIC (Staphylococcus aureus [3]) | MIC (Staphylococcus aureus [4]) | MIC (Bacillus subtilis) | MIC (Staphylococcus aureus [5]) | MIC (Escherichia coli [6]) | MIC (Pseudomonas aeruginosa) | MIC (Escherichia coli [7]) | MIC (Escherichia coli [8]) | fold change (FC) (Staphylococcus aureus [9]) | fold change (FC) (Escherichia coli [10]) | Activity (Klebsiella pneumoniae [11]) | Activity (Staphylococcus aureus [12]) | Activity (Escherichia coli [13]) | Activity (Cell membrane [14]) | Activity (Staphylococcus aureus [15]) | Activity (Staphylococcus aureus [16]) | Activity (Staphylococcus aureus [17]) | further results |
| --- | --- | --- | --- | --- | --- | --- | --- | --- | --- | --- | --- | --- | --- | --- | --- | --- | --- | --- | --- | --- | --- |
| CCCCCCCCCCCC(=O)N[C@@H](CCCCN)C(=O)N[C@@H](CCCCN)C(=O)N[C@@H](Cc1c[nH]c2ccccc12)C(=O)N[C@@H](Cc1c[nH]c2ccccc12)C(N)=O (Lauroyl-KKWW-NH2) | 16 µM (≈ 13.2 µg/mL) | 16 µM (≈ 13.2 µg/mL) | 4 µM (≈ 3.31 µg/mL) | 4 µM (≈ 3.31 µg/mL) | 4 µM (≈ 3.31 µg/mL) | 2 µM (≈ 1.66 µg/mL) | 4 µM (≈ 3.31 µg/mL) | 8 µM (≈ 6.62 µg/mL) | 8 µM (≈ 6.62 µg/mL) | 8 µM | 8 µM | 2 | 2 | Active | 100% | 100% | Active; Compound Showed Stronger Effect Than Positive Control 0.1% Tritonx-100 | >50% | inactive | Active | Activity (Staphylococcus aureus [18]): Active; Activity (Staphylococcus aureus [19]): Active; Activity (Staphylococcus aureus [20]): Active; Activity (Staphylococcus aureus [21]): Active; fractional inhibitory concentration index (FICI) (Staphylococcus aureus [22]): 0.5; fractional inhibitory concentration index (FICI) (Staphylococcus aureus [23]): 0.375; fractional inhibitory concentration index (FICI) (Staphylococcus aureus [24]): 0.75; fractional inhibitory concentration index (FICI) (Staphylococcus aureus [25]): 0.562; fractional inhibitory concentration index (FICI) (Staphylococcus aureus [26]): 0.375; Activity [27]: Toxic; Activity (Klebsiella pneumoniae [28]): 2.4 10^4CFU/mg; Activity (Staphylococcus aureus [29]): Active; Activity (Staphylococcus aureus [30]): <20%; Activity (Staphylococcus aureus [31]): Active; Activity (Staphylococcus aureus [32]): Active |
| CCCCCCCC(=O)NCCCC[C@H](NC(=O)CCCCCCC)C(=O)N[C@@H](CCCCN)C(=O)N[C@@H](CCCCN)C(=O)N[C@@H](Cc1c[nH]c2ccccc12)C(=O)N[C@@H](Cc1c[nH]c2ccccc12)C(N)=O (Octanoyl-K(Octanoyl)KKWW-NH2) | 16 µM (≈ 16.4 µg/mL) | 16 µM (≈ 16.4 µg/mL) | 8 µM (≈ 8.21 µg/mL) | 8 µM (≈ 8.21 µg/mL) | 16 µM (≈ 16.4 µg/mL) | 8 µM (≈ 8.21 µg/mL) | 8 µM (≈ 8.21 µg/mL) | 8 µM (≈ 8.21 µg/mL) | 8 µM (≈ 8.21 µg/mL) | 4 µM | 8 µM | 2 | 2 | Active | 100% | 100% | Active; Compound Showed Stronger Effect Than Positive Control 0.1% Tritonx-100 | >50% | inactive | Active | MIC (Staphylococcus aureus [33]): 8 µM; MIC (Staphylococcus aureus [34]): 8 µM; Activity (Cell membrane [35]): Active; Activity (Staphylococcus aureus [18]): Active; Activity (Staphylococcus aureus [19]): Active; Activity (Staphylococcus aureus [20]): Active; Activity (Staphylococcus aureus [21]): Active; fractional inhibitory concentration index (FICI) (Staphylococcus aureus [22]): 0.5; fractional inhibitory concentration index (FICI) (Staphylococcus aureus [23]): 0.375; fractional inhibitory concentration index (FICI) (Staphylococcus aureus [24]): 0.562; fractional inhibitory concentration index (FICI) (Staphylococcus aureus [25]): 0.562; Activity [27]: Toxic; Activity [36]: Non-toxic; Activity (Klebsiella pneumoniae [28]): 1.66 10^4CFU/mg; Activity (Staphylococcus aureus [29]): Active; Activity (Staphylococcus aureus [30]): <20%; Activity (Staphylococcus aureus [31]): Active; Activity (Staphylococcus aureus [32]): Active |
